Laboratory results as given in ChEMBL document CHEMBL1201862, “PubChem BioAssay data set” (2004).
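1) Cells in 96-well plates. 2) Compound, 48 h, 5 concentrations. 3) Linear interpolation between surrounding doses. 4) Unreached endpoint = highest concentration. GI50 marks 50% less growth.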 Activity calls are given as the source filed them. Cut-off read from the data, not from the text of the source: active = GI50 up to about 1.1 µM and inactive = higher.

Key:
Assay in all cases: inhibition of tumour cell growth, NCI panel, 48 h
KM12 = tested on: KM12
CCRF-CEM = tested on: CCRF-CEM
SF-295 = tested on: SF-295
NCI-H460 = tested on: NCI-H460
SR = tested on: SR
HT-29 = tested on: HT-29
NCI-H23 = tested on: NCI-H23
SN12C = tested on: SN12C
DU-145 = tested on: DU-145
RPMI-8226 = tested on: RPMI-8226
LOX IMVI = tested on: LOX IMVI
HL-60 = tested on: HL-60
COLO 205 = tested on: COLO 205
OVCAR-8 = tested on: OVCAR-8
HOP-62 = tested on: HOP-62
786-0 = tested on: 786-0
T47D = tested on: T47D
SK-MEL-5 = tested on: SK-MEL-5
HCT-15 = tested on: HCT-15
SK-MEL-28 = tested on: SK-MEL-28
SF-539 = tested on: SF-539
UACC-257 = tested on: UACC-257
EKVX = tested on: EKVX
MDA-MB-231 = tested on: MDA-MB-231
U-251 = tested on: U-251
ACHN = tested on: ACHN
TK-10 = tested on: TK-10
NCI/ADR-RES = tested on: NCI/ADR-RES
A549 = tested on: A549
A498 = tested on: A498
HOP-92 = tested on: HOP-92
SNB-19 = tested on: SNB-19
Hs-578T = tested on: Hs-578T
HCT-116 = tested on: HCT-116
OVCAR-4 = tested on: OVCAR-4
SW-620 = tested on: SW-620
UACC-62 = tested on: UACC-62
UO-31 = tested on: UO-31
MCF7 = tested on: MCF7
HCC 2998 = tested on: HCC 2998
SF-268 = tested on: SF-268
IGROV-1 = tested on: IGROV-1
SNB-75 = tested on: SNB-75
RXF 393 = tested on: RXF 393
OVCAR-5 = tested on: OVCAR-5
MDA-MB-435 = tested on: MDA-MB-435
Malme-3M = tested on: Malme-3M
MOLT-4 = tested on: MOLT-4
SK-OV-3 = tested on: SK-OV-3
M14 = tested on: M14
NCI-H226 = tested on: NCI-H226
PC-3 = tested on: PC-3
CAKI-1 = tested on: CAKI-1
MDA-N = tested on: MDA-N
K562 = tested on: K562
SK-MEL-2 = tested on: SK-MEL-2
OVCAR-3 = tested on: OVCAR-3

SMILES: O=C1NCC2(CCNCC2)N1
- GI50 (KM12): > 100 µM (inactive)
- GI50 (CCRF-CEM): > 100 µM (inactive)
- GI50 (SF-295): > 100 µM (inactive)
- GI50 (NCI-H460): > 100 µM (inactive)
- GI50 (SR): > 100 µM (inactive)
- GI50 (HT-29): > 100 µM (inactive)
- GI50 (NCI-H23): > 100 µM (inactive)
- GI50 (SN12C): > 100 µM (inactive)
- GI50 (DU-145): > 100 µM (inactive)
- GI50 (RPMI-8226): > 100 µM (inactive)
- GI50 (LOX IMVI): > 100 µM (inactive)
- GI50 (HL-60): > 100 µM (inactive)
- GI50 (COLO 205): > 100 µM (inactive)
- GI50 (OVCAR-8): > 100 µM (inactive)
- GI50 (HOP-62): > 100 µM (inactive)
- GI50 (786-0): > 100 µM (inactive)
- GI50 (T47D): > 100 µM (inactive)
- GI50 (SK-MEL-5): > 100 µM (inactive)
- GI50 (HCT-15): > 100 µM
- GI50 (SK-MEL-28): > 100 µM (inactive)
- GI50 (SF-539): > 100 µM (inactive)
- GI50 (UACC-257): > 100 µM (inactive)
- GI50 (EKVX): > 100 µM (inactive)
- GI50 (MDA-MB-231): > 100 µM (inactive)
- GI50 (U-251): > 100 µM (inactive)
- GI50 (ACHN): > 100 µM (inactive)
- GI50 (TK-10): > 100 µM (inactive)
- GI50 (NCI/ADR-RES): > 100 µM (inactive)
- GI50 (A549): > 100 µM (inactive)
- GI50 (A498): > 100 µM (inactive)
- GI50 (HOP-92): > 100 µM (inactive)
- GI50 (SNB-19): > 100 µM (inactive)
- GI50 (Hs-578T): > 100 µM (inactive)
- GI50 (HCT-116): > 100 µM (inactive)
- GI50 (OVCAR-4): > 100 µM (inactive)
- GI50 (SW-620): > 100 µM (inactive)
- GI50 (UACC-62): > 100 µM (inactive)
- GI50 (UO-31): > 100 µM (inactive)
- GI50 (MCF7): > 100 µM (inactive)
- GI50 (HCC 2998): > 100 µM (inactive)
- GI50 (SF-268): > 100 µM (inactive)
- GI50 (IGROV-1): > 100 µM (inactive)
- GI50 (SNB-75): > 100 µM (inactive)
- GI50 (RXF 393): > 100 µM (inactive)
- GI50 (OVCAR-5): > 100 µM (inactive)
- GI50 (MDA-MB-435): > 100 µM (inactive)
- GI50 (Malme-3M): > 100 µM (inactive)
- GI50 (MOLT-4): > 100 µM (inactive)
- GI50 (SK-OV-3): > 100 µM (inactive)
- GI50 (M14): > 100 µM (inactive)
- GI50 (NCI-H226): > 100 µM (inactive)

SMILES: COC(=O)/C(=C\C(=O)c1ccc(Br)cc1)NN=C(c1ccccc1)c1ccccc1
- GI50 (KM12): > 10 µM (inactive)
- GI50 (CCRF-CEM): > 10 µM (inactive)
- GI50 (SF-295): > 10 µM (inactive)
- GI50 (SR): > 10 µM (inactive)
- GI50 (HT-29): > 10 µM (inactive)
- GI50 (NCI-H23): > 10 µM (inactive)
- GI50 (SN12C): > 10 µM (inactive)
- GI50 (DU-145): > 10 µM (inactive)
- GI50 (RPMI-8226): > 10 µM (inactive)
- GI50 (LOX IMVI): > 10 µM (inactive)
- GI50 (HL-60): > 10 µM (inactive)
- GI50 (COLO 205): > 10 µM (inactive)
- GI50 (OVCAR-8): > 10 µM (inactive)
- GI50 (HOP-62): > 10 µM (inactive)
- GI50 (786-0): > 10 µM (inactive)
- GI50 (T47D): > 10 µM (inactive)
- GI50 (SK-MEL-5): > 10 µM (inactive)
- GI50 (HCT-15): > 10 µM
- GI50 (SK-MEL-28): > 10 µM (inactive)
- GI50 (PC-3): > 10 µM (inactive)
- GI50 (UACC-257): > 10 µM (inactive)
- GI50 (EKVX): > 10 µM (inactive)
- GI50 (MDA-MB-231): > 10 µM (inactive)
- GI50 (TK-10): > 10 µM (inactive)
- GI50 (A549): > 10 µM (inactive)
- GI50 (HOP-92): > 10 µM (inactive)
- GI50 (CAKI-1): > 10 µM (inactive)
- GI50 (MDA-N): > 10 µM (inactive)
- GI50 (OVCAR-4): > 10 µM (inactive)
- GI50 (K562): > 10 µM (inactive)
- GI50 (SW-620): > 10 µM (inactive)
- GI50 (UACC-62): > 10 µM (inactive)
- GI50 (MCF7): > 10 µM (inactive)
- GI50 (HCC 2998): > 10 µM (inactive)
- GI50 (SF-268): > 10 µM (inactive)
- GI50 (IGROV-1): > 10 µM (inactive)
- GI50 (SNB-75): > 10 µM (inactive)
- GI50 (RXF 393): > 10 µM (inactive)
- GI50 (MDA-MB-435): > 10 µM (inactive)
- GI50 (Malme-3M): > 10 µM (inactive)
- GI50 (MOLT-4): > 10 µM (inactive)
- GI50 (SK-OV-3): > 10 µM (inactive)
- GI50 (M14): > 10 µM (inactive)

SMILES: NS(=O)(=O)c1ccc(/C=C/c2ccc(O)cc2)cc1
- GI50 (SF-295): 21.3 µM (inactive)
- GI50 (NCI-H460): 18.7 µM (inactive)
- GI50 (SN12C): 18.9 µM (inactive)
- GI50 (DU-145): 16.2 µM (inactive)
- GI50 (COLO 205): 19.9 µM (inactive)
- GI50 (HOP-62): 31.5 µM (inactive)
- GI50 (SK-MEL-2): 25.9 µM (inactive)
- GI50 (786-0): 10.7 µM (inactive)
- GI50 (T47D): 21.1 µM (inactive)
- GI50 (SK-MEL-5): 11.4 µM (inactive)
- GI50 (SK-MEL-28): 27.5 µM (inactive)
- GI50 (PC-3): 18.8 µM (inactive)
- GI50 (UACC-257): 30.4 µM (inactive)
- GI50 (EKVX): 22.7 µM (inactive)
- GI50 (MDA-MB-231): 14.8 µM (inactive)
- GI50 (TK-10): 43.8 µM (inactive)
- GI50 (NCI/ADR-RES): 14 µM (inactive)
- GI50 (A498): 41.5 µM (inactive)
- GI50 (HOP-92): 10.7 µM (inactive)
- GI50 (SNB-19): 44.4 µM (inactive)
- GI50 (MDA-N): 33 µM (inactive)
- GI50 (HCT-116): 23 µM (inactive)
- GI50 (SW-620): 25.6 µM (inactive)
- GI50 (UO-31): 8.73 µM (inactive)
- GI50 (MCF7): 17.5 µM (inactive)
- GI50 (OVCAR-3): 19 µM (inactive)
- GI50 (HCC 2998): 19.7 µM (inactive)
- GI50 (SNB-75): 15.6 µM (inactive)
- GI50 (RXF 393): 51.6 µM (inactive)
- GI50 (OVCAR-5): 40.6 µM (inactive)
- GI50 (Malme-3M): 26.9 µM (inactive)
- GI50 (SK-OV-3): 23.9 µM (inactive)
- GI50 (M14): 24.4 µM (inactive)

SMILES: O=C1OC(c2ccccc2)=N/C1=C/c1cccs1
- GI50 (KM12): 56 µM (inactive)
- GI50 (CCRF-CEM): 23.4 µM (inactive)
- GI50 (SF-295): > 100 µM (inactive)
- GI50 (NCI-H460): > 100 µM (inactive)
- GI50 (SR): 70 µM (inactive)
- GI50 (HT-29): > 100 µM (inactive)
- GI50 (RPMI-8226): 16.4 µM (inactive)
- GI50 (HL-60): 18.8 µM (inactive)
- GI50 (OVCAR-8): 63.1 µM (inactive)
- GI50 (HOP-62): 48.5 µM (inactive)
- GI50 (SK-MEL-2): 49 µM (inactive)
- GI50 (HCT-15): 36.7 µM
- GI50 (SK-MEL-28): > 100 µM (inactive)
- GI50 (PC-3): > 100 µM (inactive)
- GI50 (SF-539): 27.6 µM (inactive)
- GI50 (UACC-257): 65.6 µM (inactive)
- GI50 (EKVX): > 100 µM (inactive)
- GI50 (U-251): 59.8 µM (inactive)
- GI50 (ACHN): > 100 µM (inactive)
- GI50 (TK-10): > 100 µM (inactive)
- GI50 (NCI/ADR-RES): 38.3 µM (inactive)
- GI50 (A549): > 100 µM (inactive)
- GI50 (HOP-92): > 100 µM (inactive)
- GI50 (SNB-19): 61.9 µM (inactive)
- GI50 (Hs-578T): 87.1 µM (inactive)
- GI50 (OVCAR-4): 41 µM (inactive)
- GI50 (K562): 30.4 µM (inactive)
- GI50 (SW-620): > 100 µM (inactive)
- GI50 (MCF7): > 100 µM (inactive)
- GI50 (OVCAR-3): 26.8 µM (inactive)
- GI50 (HCC 2998): > 100 µM (inactive)
- GI50 (SF-268): > 100 µM (inactive)
- GI50 (IGROV-1): > 100 µM (inactive)
- GI50 (SNB-75): 42.4 µM (inactive)
- GI50 (RXF 393): > 100 µM (inactive)
- GI50 (OVCAR-5): > 100 µM (inactive)
- GI50 (MDA-MB-435): > 100 µM (inactive)
- GI50 (MOLT-4): 14.5 µM (inactive)
- GI50 (SK-OV-3): > 100 µM (inactive)
- GI50 (M14): > 100 µM (inactive)
- GI50 (NCI-H226): 58.3 µM (inactive)
